In paper PMC10938764 (Journal of Nanobiotechnology, 2024):
Ends that are not written are not given here.

Assays:
IAPs = conditions: cited from earlier work
Text: (§1) First, the cathepsin B-cleavable SMAC-P, SMAC-P-FRRG ([…]), was conjugated to a DOX through one-step EDC/NHS reaction, resulting in SMAC-P-FRRG-DOX (Fig. 1a and Additional file 1: Figure S1).

[1] = Drug release profile from dialysis membranes; assay type: physicochemical; conditions: very fast release
IAPs in CT26 cells = assay: Intracellular IAPs expression by western blot; assay type: cell-based, mouse; conditions: 48 h
[2] = test system: CT26 colon tumor-bearing mice; assay: In vivo antitumor efficacy
Method: (§2) Antitumor efficacy was assessed by measuring tumor volumes that are calculated as the largest diameter × the smallest diameter^2 × 0.53. To analyze the increase of tumor-infiltrating lymphocytes by antitumor immune response, tumor tissues were collected from mice on day 13 after treatment, and single cells were isolated from tumor tissues using a tumor dissociation kit. Following single cell counting, the cells were incubated with FcBlock for 10 min to avoid non-specific antibody binding. Then, multi-parameter staining was performed at 4 °C for 50 min to identify the following populations within the tumor tissues: (i) CRT-positive cancer cells (CD45^−CRT^+), (ii) mature DCs (CD11c^+CD40^+CD86^+), (iii) cytotoxic T cells (CD45^+CD3^+CD8^+) and (iv) regulatory T lymphocytes (Tregs; CD45^+CD3^+CD4^+CD25^+).

CT26 tumor tissues = assay: Antitumor immune response in tumor tissues (flow cytometry); assay type: in vivo, mice; conditions: day 13 after treatment, 3 mg/kg DOX dose once every three days
Method: as §2

[3] = test system: CT26 colon tumor-bearing mice
Method: as §2

[4] = test system: cancer, normal and immune cells (CT26, 4T1, H9C2, HDF, M0 and M1 macrophages, DCs, T cells); assay: Cytotoxicity study (CCK-8), all cell types; conditions: read-out: IC50 values in all the cell types (span); CCK-8, 48 h, concentrations based on DOX contents
Method: Briefly, 5 × 10^3 cells were seeded in 96-well cell culture plates and cultured at 37 C for 24 h. […] Finally, 20 μl Cell Counting Kit-8 (CCK-8) solution was added and then further incubated for 20 min. The cell viability was measured using a UV/Vis microplate reader.

[5] = test system: CT26 cells co-cultured with bone marrow-derived macrophages (BMDMs); assay: Co-culture assay: phagocytosis of treated CT26 cells by BMDMs; conditions: CT26 treated 2 µM (DOX contents) 48 h, pHrodo labeled; co-cultured 2 h with BMDMs; confocal imaging
Method: For these analyses, bone marrow cells were collected from 5-week-old male BALB/C mice and cultured with differentiation media containing M-CSF (20 ng/mL) for 7 days, followed by labeling with CellTracker Green. […] Then, both cells were co-cultured at 37 C for 2 h, and the phagocytosis of cancer cells was observed using a CLSM.

CT26 cells = assay: Cellular uptake and nuclear localization of DOX fluorescence (confocal); conditions: both naive or Z-FA-FMK-treated CT26 cells; 2 µM, 48 h
Method: The cells were then washed with DPBS, fixed with 4% paraformaldehyde for 10 min, and stained with 4ʹ,6-diamidino-2-phenylindole (DAPI) for 5 min. […] The cellular uptake of each drug in different cell lines were quantified using flow cytometer (CytoFLEX, BECKMAN COULTER, USA).

[6] = Size distribution and zeta potential by zeta-sizer (DLS); assay type: physicochemical; conditions: Zetasizer, 1 mg/ml; saline or D.W (Figure S3)
[7] = Particle stability (particle size over time) in saline, mouse plasma or serum; assay type: physicochemical
Method: The inset pictures indicate representative images of Aposomes in mouse serum conditions. g Release profiles of free DOX, DOXIL and Aposomes. […] As a control, SMAC-P-FRRG-DOX in MES buffer in the absence of cathepsin B was analyzed using an HPLC system.

MMP-9 = conditions: cited from earlier work
Text: as §1

caspase-3 = conditions: cited from earlier work
Text: as §1

cathepsin D = conditions: cited from earlier work
Text: as §1

cathepsin E = conditions: cited from earlier work
Text: as §1

cathepsin L = conditions: cited from earlier work
Text: as §1

AVPIAQFR [peptide released from SMAC-P-FRRG-DOX by cathepsin B]
IAPs antagonism activity of cathepsin B cleavage product (IAPs): comparable IAPs antagonism activity to AVPIAQ

AVPIAQ
IAP antagonism compared to AVPIAQK, AVPIA and AVPI (IAPs): potent activity for IAP antagonism compared to other sequences

COc1cccc2c1C(=O)c1c(O)c3c(c(O)c1C2=O)C[C@@](O)(C(=O)CO)C[C@@H]3O[C@H]1C[C@H](N)[C@H](O)[C@H](C)O1.Cl [free DOX, Doxorubicin hydrochloride]
time of release from dialysis membranes [1]: ≤ 6 h | intracellular IAPs expression levels (IAPs in CT26 cells): significantly upregulated | median survival / survival of mice ([2]; 3 mg/kg DOX dose once every three days): 14 days | tumor volume on day 14 ([2]; i.v. 3 mg/kg DOX dose once every three days, n = 5, mean ± SD): 556.2 ± 149.82 mm^3 | percentage of CRT-positive tumor cells (CD45−CRT+) within the tumor tissues (CT26 tumor tissues): 57.67 ± 0.91% | mice died within 13 days ([3]; 3 mg/kg DOX dose i.v. once every three days): 4 out of 5 | body weight loss and tissue damage in major organs ([3]; 3 mg/kg DOX dose once every three days, H and E of major organs): significant body weight loss along with extensive tissue damages | IC50 [4]: 3 to 380 nM | phagocytosis of CT26 cells by BMDMs [5]: 2.1 ± 0.21% | free DOX fluorescence detected in the nuclei (CT26 cells): more than 90%

AVPIAQFRRG [SMAC-P-FRRG-DOX, prodrug of SMAC mimetic peptide (AVPIAQ), cathepsin B-cleavable peptide (FRRG) and doxorubicin]
zeta potential [6]: 14.9 ± 0.814 mV | particle stability in mouse plasma ([7]; mouse plasma, 1 mg/ml, up to 5 days, particle size): remarkable aggregation after 2 days | particle stability in mouse serum ([7]; mouse serum, as worded in Conclusions): significant aggregation from 48 h | cleavage by MMP-9 (MMP-9): not cleaved | cleavage by caspase-3 (caspase-3): not cleaved | cleavage by cathepsin D (cathepsin D): not cleaved | cleavage by cathepsin E (cathepsin E): not cleaved | cleavage by cathepsin L (cathepsin L): not cleaved
